Measurements taken from PubChem BioAssay (NCI).
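Cells were grown in 96-well plates and exposed to each compound for 48 hours at five concentrations; endpoints were interpolated linearly between bracketing concentrations, or set to the highest concentration if not reached. TGI: total growth inhibition.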

How the values were obtained:
Assay in all cases: DTP human tumour cell line panel, 48 h
[1] = system: 786-0 renal
[2] = system: A498 renal
[3] = system: A549 NSCLC
[4] = system: ACHN renal
[5] = system: CAKI-1 renal
[6] = system: CCRF-CEM leukemia
[7] = system: COLO 205 colon
[8] = system: DLD-1 colon
[9] = system: DMS 114 small cell lung
[10] = system: DMS 273 small cell lung
[11] = system: EKVX NSCLC
[12] = system: HCC-2998 colon
[13] = system: HCT-116 colon
[14] = system: HCT-15 colon
[15] = system: HL-60(TB) leukemia
[16] = system: HOP-18 NSCLC
[17] = system: HOP-62 NSCLC
[18] = system: HOP-92 NSCLC
[19] = system: HT29 colon
[20] = system: IGROV1 ovarian
[21] = system: K-562 leukemia
[22] = system: KM12 colon
[23] = system: KM20L2 colon
[24] = system: LXFL 529 NSCLC
[25] = system: M14 melanoma
[26] = system: M19-MEL melanoma
[27] = system: MALME-3M melanoma
[28] = system: MOLT-4 leukemia
[29] = system: NCI-H226 lung
[30] = system: NCI-H23 lung
[31] = system: NCI-H460 lung
[32] = system: NCI-H522 lung
[33] = system: OVCAR-3 ovarian
[34] = system: OVCAR-4 ovarian
[35] = system: OVCAR-5 ovarian
[36] = system: OVCAR-8 ovarian
[37] = system: RPMI-8226 leukemia
[38] = system: RXF 393 renal
[39] = system: SF-268 CNS
[40] = system: SF-295 CNS
[41] = system: SF-539 CNS
[42] = system: SK-MEL-2 melanoma
[43] = system: SK-MEL-28 melanoma
[44] = system: SK-MEL-5 melanoma
[45] = system: SK-OV-3 ovarian
[46] = system: SN12C renal
[47] = system: SNB-19 CNS
[48] = system: SNB-75 CNS
[49] = system: SNB-78 CNS
[50] = system: SR leukemia
[51] = system: SW-620 colon
[52] = system: TK-10 renal
[53] = system: U251 CNS
[54] = system: UACC-257 melanoma
[55] = system: UACC-62 melanoma
[56] = system: UO-31 renal
[57] = system: XF 498 CNS
[58] = system: LOX IMVI melanoma

SMILES: CC(=O)CC(=O)Nc1ccccc1[N+](=O)[O-]
- TGI [1]: > 100 µM
- TGI [2]: > 100 µM
- TGI [3]: > 100 µM
- TGI [4]: > 100 µM
- TGI [5]: > 100 µM
- TGI [6]: > 100 µM
- TGI [7]: > 100 µM
- TGI [8]: > 100 µM
- TGI [9]: > 100 µM
- TGI [10]: > 100 µM
- TGI [11]: > 100 µM
- TGI [12]: > 100 µM
- TGI [13]: > 100 µM
- TGI [14]: > 100 µM
- TGI [15]: > 100 µM
- TGI [16]: > 100 µM
- TGI [17]: > 100 µM
- TGI [18]: > 100 µM
- TGI [19]: > 100 µM
- TGI [20]: > 100 µM
- TGI [21]: > 100 µM
- TGI [22]: > 100 µM
- TGI [23]: > 100 µM
- TGI [24]: > 100 µM
- TGI [25]: > 100 µM
- TGI [26]: > 100 µM
- TGI [27]: > 100 µM
- TGI [28]: > 100 µM
- TGI [29]: > 100 µM
- TGI [30]: > 100 µM
- TGI [31]: > 100 µM
- TGI [32]: > 100 µM
- TGI [33]: > 100 µM
- TGI [34]: > 100 µM
- TGI [35]: > 100 µM
- TGI [36]: > 100 µM
- TGI [37]: > 100 µM
- TGI [38]: > 100 µM
- TGI [39]: > 100 µM
- TGI [40]: > 100 µM
- TGI [41]: > 100 µM
- TGI [42]: > 100 µM
- TGI [43]: > 100 µM
- TGI [44]: > 100 µM
- TGI [45]: > 100 µM
- TGI [46]: > 100 µM
- TGI [47]: > 100 µM
- TGI [48]: > 100 µM
- TGI [49]: > 100 µM
- TGI [50]: > 100 µM
- TGI [51]: > 100 µM
- TGI [52]: > 100 µM
- TGI [53]: > 100 µM
- TGI [54]: > 100 µM
- TGI [55]: > 100 µM
- TGI [56]: > 100 µM
- TGI [57]: > 100 µM

SMILES: CC1(C(=O)Nc2ccc3cc4ccccc4cc3c2)CC2(C)CC(C)(C1)C(O)NC2=O (stereo not drawn)
- TGI [1]: > 100 µM
- TGI [2]: > 100 µM
- TGI [3]: > 100 µM
- TGI [4]: > 100 µM
- TGI [5]: > 100 µM
- TGI [6]: > 100 µM
- TGI [7]: > 100 µM
- TGI [8]: > 100 µM
- TGI [9]: > 100 µM
- TGI [10]: > 100 µM
- TGI [11]: > 100 µM
- TGI [12]: > 100 µM
- TGI [13]: > 100 µM
- TGI [14]: > 100 µM
- TGI [15]: 85.8 µM
- TGI [16]: > 100 µM
- TGI [17]: > 100 µM
- TGI [18]: > 100 µM
- TGI [19]: > 100 µM
- TGI [20]: > 100 µM
- TGI [21]: > 100 µM
- TGI [22]: > 100 µM
- TGI [23]: > 100 µM
- TGI [58]: > 100 µM
- TGI [24]: > 100 µM
- TGI [25]: > 100 µM
- TGI [26]: > 100 µM
- TGI [27]: > 100 µM
- TGI [28]: > 100 µM
- TGI [29]: > 100 µM
- TGI [30]: > 100 µM
- TGI [31]: > 100 µM
- TGI [33]: > 100 µM
- TGI [34]: > 100 µM
- TGI [35]: > 100 µM
- TGI [36]: > 100 µM
- TGI [37]: > 100 µM
- TGI [38]: > 100 µM
- TGI [39]: > 100 µM
- TGI [40]: > 100 µM
- TGI [41]: > 100 µM
- TGI [42]: > 100 µM
- TGI [43]: > 100 µM
- TGI [44]: > 100 µM
- TGI [45]: > 100 µM
- TGI [46]: > 100 µM
- TGI [48]: > 100 µM
- TGI [49]: > 100 µM
- TGI [50]: > 100 µM
- TGI [51]: > 100 µM
- TGI [52]: > 100 µM
- TGI [53]: > 100 µM
- TGI [54]: > 100 µM
- TGI [55]: > 100 µM
- TGI [56]: > 100 µM
- TGI [57]: > 100 µM
